Test results as given in paper PMC5441137, “Positively Selected Sites at HCMV gB Furin Processing Region and Their Effects in Cleavage Efficiency” (Frontiers in Microbiology, 2017).

Assays:
[1] = biological target: T1, recombinant human furin (Homo sapiens, UniProt P09958); assay: Analysis of furin-processed FRET substrates by LC-MS / HPLC / Maldi-TOF; format: biochemical; settings: FRET peptide 5 μM, spectrofluorimeter and Maldi-TOF after 2 h of incubation with furin
T1 construct: made in house
T1 sequence (P09958 108-794): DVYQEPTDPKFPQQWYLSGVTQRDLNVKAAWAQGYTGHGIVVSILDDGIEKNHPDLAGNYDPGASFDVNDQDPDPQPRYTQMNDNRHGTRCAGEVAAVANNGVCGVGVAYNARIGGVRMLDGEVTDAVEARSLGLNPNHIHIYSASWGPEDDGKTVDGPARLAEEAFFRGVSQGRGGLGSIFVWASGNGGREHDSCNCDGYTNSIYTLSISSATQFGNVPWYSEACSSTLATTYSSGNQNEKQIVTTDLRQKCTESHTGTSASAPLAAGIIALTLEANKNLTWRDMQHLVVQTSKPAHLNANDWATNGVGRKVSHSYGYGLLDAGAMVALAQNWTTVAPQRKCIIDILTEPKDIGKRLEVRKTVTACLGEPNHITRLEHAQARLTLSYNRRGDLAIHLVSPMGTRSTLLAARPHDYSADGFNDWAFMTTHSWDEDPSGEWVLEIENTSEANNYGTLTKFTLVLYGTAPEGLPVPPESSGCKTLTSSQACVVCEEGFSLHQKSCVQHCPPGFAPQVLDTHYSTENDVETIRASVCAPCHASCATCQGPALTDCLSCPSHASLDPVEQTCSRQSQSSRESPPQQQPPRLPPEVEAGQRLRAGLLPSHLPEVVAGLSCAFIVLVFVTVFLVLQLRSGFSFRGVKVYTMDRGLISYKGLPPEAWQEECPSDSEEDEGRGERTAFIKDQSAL
Source text: In order to see if the mutations have an influence in cleavage, peptides containing the original reference sequences and their derivative containing positive selected mutations, were synthesized and tested against recombinant human furin. All substrates were cleaved after the double basic residues RR or KR as analyzed by Liquid Chromatography mass spectrometry (LC-MS) (Supplementary Figures S1–S3). The kcat/km ratio relates to the catalytic efficiency, meaning how fast in […] the enzyme reacts with the substrate once it encounters it. As a control, a peptide which contains a mutation previously shown to interfere with furin cleavage ([Strive et al., 2002]) was tested and as expected no cleavage was observed (Table 2 and Supplementary Figure S3).
Supplementary file Image_1.TIF: FIGURE S1 HPLC of furin-processed FRET substrates. […] Substrate and products were followed by fluorescence (Abz, ex320 nm; em420 nm) quenching (Eddnp, uv = 365 nm) indicating single cleavage site for all tested sequences. (A) gB3_22. (B) gB_20. (C) gB3_26 (D) gB2_18. (E) gB2_13. (F) gB2_19. Click here for additional data file.
Supplementary file Image_2.TIF: FIGURE S2 Mass spectra of furin-processed substrates. […] (A) gB3_22 substrate and products (1549.3, 678.7, and 888.7 Da). (B) gB2_13 (1634.4, 706.7, and 945.7 Da). (C) gB_20 (1604.3, 706.7, and 915.6 Da). […]

[2] = biological target: T1, recombinant human furin; assay: FRET peptide enzymatic kinetics assay of cleavage by furin; format: biochemical; settings: for Km / kcat: FRET peptide as furin substrate, 10 mM MES, 1 mM CaCl2, pH 7.0, 37°C, fluorescence λex 320 nm/λem 420 nm, non-linear Michaelis-Menten fit (Grafit)
Description: Recombinant human furin was expressed and purified as previously described ([Kacprzak et al., 2004]). The enzyme concentration was determined by active site titration using the inhibitor decanoyl-RVKR-CMK inhibitor in 10 mM MES buffer, 1 mM CaCl2, pH 7.0 and the substrate Abz-GIRRKRSVSHQ-EDDnp.
Seven synthetic peptides were obtained by solid-phase strategy, as previously described ([Izidoro et al., 2010]) using the Fmoc-procedure in an automated multiple solid-phase peptide synthesizer (PSSM 8 system, Shimadzu, Japan) ([Hirata et al., 1995]; [Korkmaz et al., 2008]). Peptides were prepared in dimethylformamide and stock concentrations measured spectrophotometrically at 365 nm (e = 17,300 M^-1.cm^-1). The quantum yields of the FRET peptides and the products of their hydrolysis were unchanged in all tested conditions.
The FRET peptides were assayed in 10 mM MES, 1 mM CaCl2, pH 7.0, using a F-2500 spectrofluorimeter (Hitachi, Tokyo, Japan), at 37°C ([Izidoro et al., 2010]), as previously described. Fluorescence changes were monitored continuously at λex = 320 nm and λem = 420 nm. The enzyme concentrations for initial rate determinations were chosen at a level intended to hydrolyze less than 5% of the amount of added substrate over the time course of data collection.
Three kinetic parameters from the Michaelis-Menten model were analyzed, representing enzyme-substrate (km), the catalysis constant (kcat) and the kcat/km ratio. The kinetic parameters km and kcat were calculated by non-linear regression using Grafit software (Erithacus Software, Horley, Surrey, UK). km, kcat, and standard errors (less than 10%) were calculated using Grafit software (v.5.0.13, Erithacus Software, Horley, Surrey, UK) with a non-linear least squares Michaelis-Menten fit associated with a matrix invertion fitting routine to refine kcat, km and allowing estimation of the errors. Standard deviations greater than 10% are due to low values obtained.

[3] = versus genotype 3 reference peptide (gB3_22)

| Substance | processing by furin (cleavage observed or not) [1] | Km [2] | kcat [2] | decrease in kcat/km ratio compared to the reference sequence [2, 3] | increase in the km compared to the reference sequence [2, 3] | increase of the kcat/km ratio compared to the reference sequence ([2]; versus genotype 2 reference sequence (gB2_13)) |
| --- | --- | --- | --- | --- | --- | --- |
| ATRASTSDNNT | not processed by furin | – | – | – | – | – |
| RTKR↓DTGNTTT [gB3_26, FRET peptide of gB genotype 3 with the positively selected mutation S461D] | – | 0.43 µM | 1.89 s⁻¹ | threefold | 20 times | – |
| RTKR↓STGNTTT [gB3_22] | – | 0.02 µM | 0.25 s⁻¹ | – | – | – |
| RTRR↓SASDNNT [gB2_20, FRET peptide of gB genotype 2 with the positively selected mutation T462A] | – | 0.69 µM | 4.06 s⁻¹ | – | – | – |
| RTRR↓SMSDNNT [gB2_18, FRET peptide of gB genotype 2 with the positively selected mutation T462M] | – | 1.65 µM | 3.01 s⁻¹ | – | – | – |
| RTRR↓SRSDNNT [gB2_19, FRET peptide of gB genotype 2 with the positively selected mutation T462R] | – | 0.23 µM | 5.06 s⁻¹ | – | – | 31 fold |
| RTRR↓STSDNNT [gB2_13] | – | 3.19 µM | 2.24 s⁻¹ | – | – | – |
